Results as given in US20230192686A1, “1H-PYRROLO[2,3-B]PYRIDINES AND PREPARATION AND USES THEREOF” (BioSplice Therapeutics, Inc., priority 2021, published 2023).

target: recombinant DYRK1A kinase (Homo sapiens, UniProt Q13627); assay: DYRK1A kinase assay (Ser/Thr 18 peptide Z-lyte FRET); assay type: biochemical; details: DYRK1A kinase activity; 15 μM ATP, 4 μM Ser/Thr peptide 18, one hour at room temperature
Experimental: Representative compounds were screened using the assay procedure for DYRK1A kinase activity as described below.
Each compound was dissolved in DMSO as a 10 mM stock and used to prepare compound source plates. Serial dilution (1:3, 11-point dose-response curves from 10 μM to 0.00016 μM) and compound transfer was performed using the ECHO 550 (Labcyte, Sunnyvale, Calif.) into 1536-well black-walled round bottom plates (Corning).
The DYRK1A kinase assay was run using the Ser/Thr 18 peptide Z-lyte assay kit according to manufacturer's instructions (Life Technologies—a Division of Thermo-Fisher). This is a non-radioactive assay using fluorescence resonance energy transfer (FRET) between coumarin and fluorescein to detect kinase activity which is represented as a ratio of coumarin emission/fluorescein emission.
Briefly, recombinant DYRK1A kinase, ATP and Ser/Thr peptide 18 were prepared in 1× Kinase buffer to final concentrations of 0.25 μg/mL, 15 μM, and 4 μM respectively. The mixture was allowed to incubate with the representative compounds for one hour at room temperature. All reactions were performed in duplicate. Unphosphorylated (“0% Control”) and phosphorylated (“100% control”) forms of Ser/Thr 18 served as control reactions. Additionally, an 11-point dose-response curve of Staurosporine (1 uM top) was run to serve as a positive compound control.
After incubation, Development Reagent A was diluted in Development Buffer then added to the reaction and allowed to further incubate for one hour at room temperature. The plate was read at Ex 400 Em 455 to detect the coumarin signal and Ex 400 Em 520 to measure the signal (EnVision Multilabel Plate Reader, PerkinElmer).
The Emission ratio (Em) was calculated as a ratio of the coumarin (C) emission signal (at 445 nm)/Fluorescein (F) emission signal (at 520 nm). The percent phosphorylation was then calculated using the following formula: [1−((Em ratio×F100%)−C100%)/((C0%−C100%)+(Em ratio×(F100%−F0%)))]. Dose-response curves were generated, and inhibitory concentration (IC50) values were calculated using non-linear regression curve fit in the Dotmatics' Studies Software (Bishops Stortford, UK).

Point of comparison: `CN1CCC(NC(=O)c2cnn3ccc(-c4c[nH]c5ncccc45)cc23)CC1` [Compound 45, N-(1-Methylpiperidin-4-yl)-5-(1H-pyrrolo[2,3-b]pyridin-3-yl) pyrazolo[1,5-a]pyridine-3-carboxamide], EC50 1 nM. Against it:
- O=C(c1ncnc2ccc(-c3c[nH]c4ncccc34)cc12)N1CCNC2(CC2)C1 [Compound 108, (6-(1H-Pyrrolo[2,3-b]pyridin-3-yl)quinazolin-4-yl)(4,7-diazaspiro [2.5]octan-7-yl)methanone] — 52-fold higher, 52 nM
- OCc1cnc2ccc(-c3c[nH]c4ncccc34)nn12 [Compound 35, (6-(1H-Pyrrolo[2,3-b]pyridin-3-yl)imidazo[1,2-b]pyridazin-3-yl) methanol] — 2-fold higher, 2 nM
- O=C(c1cnn2ccc(-c3c[nH]c4ncccc34)cc12)N1CCCCC1 [Compound 53, (5-(1H-Pyrrolo[2,3-b]pyridin-3-yl)pyrazolo[1,5-a]pyridin-3-yl) (piperidin-1-yl)methanone] — 7-fold higher, 7 nM
- CN1CCN(c2cc(-c3cnc4[nH]cc(-c5ccc6nccn6c5)c4c3)ccn2)CC1 [Compound 1372, 6-(5-(2-(4-Methylpiperazin-1-yl)pyridin-4-yl)-1H-pyrrolo[2,3-b]pyridin-3-yl)imidazo[1,2-a]pyridine] — the same, 1 nM
- CCOc1ccc2c(-c3ccc4ncnn4c3)c[nH]c2n1 [Compound 1757, 6-(6-Ethoxy-1H-pyrrolo[2,3-b]pyridin-3-yl)-[1,2,4]triazolo[1,5-a] pyridine] — 140-fold higher, 144 nM
- CN1CCN(c2cc(-c3c[nH]c4nc(NC(=O)c5ccncc5)ccc34)ccn2)CC1 [Compound 1897, N-(3-(2-(4-Methylpiperazin-1-yl)pyridin-4-yl)-1H-pyrrolo[2,3-b]pyridin-6-yl)isonicotinamide] — 51-fold higher, 51 nM
- Cc1nc2c(F)cc(-c3c[nH]c4ncc(-c5ccc(N6CCN(C)CC6)nc5)cc34)cc2n1C(C)C [Compound 1333, 4-Fluoro-1-isopropyl-2-methyl-6-(5-(6-(4-methylpiperazin-1-yl)pyridin-3-yl)-1H-pyrrolo[2,3-b]pyridin-3-yl)-1H-benzo[d]imidazole] — the same, 1 nM
- O=C(NCC(F)F)c1cnn2ccc(-c3c[nH]c4nc(C5CCC5)ccc34)cc12 [Compound 1554, 5-(6-Cyclobutyl-1H-pyrrolo[2,3-b]pyridin-3-yl)-N-(2,2-difluoroethyl) pyrazolo[1,5-a]pyridine-3-carboxamide] — 8-fold higher, 8 nM
- CN1CCN(c2cccc(Nc3ccc4c(-c5ccc6c(c5)CCCO6)c[nH]c4n3)c2)CC1 [Compound 1945, 3-(Chroman-6-yl)-N-(3-(4-methylpiperazin-1-yl)phenyl)-1H-pyrrolo [2,3-]pyridin-6-amine] — 120-fold higher, 125 nM
- O=C(Nc1cncc(F)c1)c1cnc2[nH]cc(-c3ccc4c(c3)C3(CCNCC3)CC4=O)c2c1 [Compound 764, N-(5-fluoropyridin-3-yl)-3-(3-oxo-2,3-dihydrospiro[indene-1,4′-piperidin]-6-yl)-1H-pyrrolo[2,3-b]pyridine-5-carboxamide] — 22-fold higher, 22 nM
- O=C(c1cnn2ccc(-c3c[nH]c4ncccc34)cc12)N1CC2(CNC2)C1 [Compound 61, (5-(1H-Pyrrolo[2,3-b]pyridin-3-yl)pyrazolo[1,5-a]pyridin-3-yl)(2,6-diazaspiro[3.3]heptan-2-yl)methanone] — 4-fold higher, 4 nM
- Cn1nnc2ccc(-c3c[nH]c4ncccc34)cc21 [Compound 31, 1-Methyl-6-(1H-pyrrolo[2,3-b]pyridin-3-yl)-1H-benzo[d][1,2,3]triazole] — 4-fold higher, 4 nM
- O=C(Nc1ccc2c(-c3ccc4ncccc4c3)c[nH]c2n1)c1ccncc1 [Compound 1908, N-(3-(Quinolin-6-yl)-1H-pyrrolo[2,3-b]pyridin-6-yl)isonicotinamide] — the same, 1 nM
- CN1CCN(c2cc(CNc3ncnc4ccc(-c5c[nH]c6ncccc56)cc34)ccn2)CC1 [Compound 105, N-((2-(4-Methylpiperazin-1-yl)pyridin-4-yl)methyl)-6-(1H-pyrrolo [2,3-b]pyridin-3-yl)quinazolin-4-amine] — 4-fold higher, 4 nM
- CN1CCN(c2ccc(NC(=O)c3cnc4[nH]cc(-c5ccc6c(c5)C(C)(C)CNC6=O)c4c3)cn2)CC1 [Compound 813, 3-(4,4-Dimethyl-1-oxo-1,2,3,4-tetrahydroisoquinolin-6-yl)-N-(6-(4-methylpiperazin-1-yl)pyridin-3-yl)-1H-pyrrolo[2,3-b]pyridine-5-carboxamide] — 3-fold higher, 3 nM
- COc1ccc2c(-c3ccc4ncccc4c3)c[nH]c2n1 [Compound 1698, 6-(6-Methoxy-1H-pyrrolo[2,3-b]pyridin-3-yl)quinoline] — 7-fold higher, 7 nM
- CN1CCC(NC(=O)c2cnn3ccc(-c4c[nH]c5nc(C6CCC6)ccc45)cc23)CC1 [Compound 1556, 5-(6-Cyclobutyl-1H-pyrrolo[2,3-b]pyridin-3-yl)-N-(1-methylpiperidin-4-yl)pyrazolo[1,5-a]pyridine-3-carboxamide] — 5-fold higher, 5 nM
- O=C1NCCn2nc(-c3c[nH]c4ncccc34)cc21 [Compound 8, 2-(1H-Pyrrolo[2,3-b]pyridin-3-yl)-6,7-dihydropyrazolo[1,5-a]pyrazin-4(5H)-one] — 7-fold higher, 7 nM
- O=C(NCC(F)F)c1cnc2ccc(-c3c[nH]c4nc(C5CC5)ccc34)cn12 [Compound 1499, 6-(6-Cyclopropyl-1H-pyrrolo[2,3-b]pyridin-3-yl)-N-(2,2-difluoroethyl) imidazo[1,2-a]pyridine-3-carboxamide] — the same, 1 nM
- c1cncc(CNc2ncnc3ccc(-c4c[nH]c5ncccc45)cc23)c1 [Compound 103, N-(Pyridin-3-ylmethyl)-6-(1H-pyrrolo[2,3-b]pyridin-3-yl)quinazolin-4-amine] — the same, 1 nM
- CN1CCN(C(=O)c2cnc3cnc(-c4c[nH]c5ncccc45)cn23)CC1 [Compound 21, (6-(1H-Pyrrolo[2,3-b]pyridin-3-yl)imidazo[1,2-a]pyrazin-3-yl)(4-methylpiperazin-1-yl)methanone] — 16-fold higher, 16 nM
- Cc1nc2c(F)cc(-c3c[nH]c4ncccc34)cc2n1C1CCN(C)CC1 [Compound 24, 4-Fluoro-2-methyl-1-(1-methylpiperidin-4-yl)-6-(1H-pyrrolo[2,3-b]pyridin-3-yl)-1H-benzo[d]imidazole] — the same, 1 nM
- CN1CCN(c2ncnc3ccc(-c4c[nH]c5ncccc45)cc23)CC1 [Compound 95, 4-(4-Methylpiperazin-1-yl)-6-(1H-pyrrolo[2,3-b]pyridin-3-yl) quinazoline] — 2-fold higher, 2 nM
- c1cnc2sc(-c3c[nH]c4ncccc34)nc2c1 [Compound 4, 2-(1H-Pyrrolo[2,3-b]pyridin-3-yl)thiazolo[5,4-b]pyridine] — 7-fold higher, 7 nM
- O=C(NCC1(F)CNC1)c1cnn2ccc(-c3c[nH]c4ncccc34)cc12 [Compound 41, N-((3-Fluoroazetidin-3-yl)methyl)-5-(1H-pyrrolo[2,3-b]pyridin-3-yl) pyrazolo[1,5-a]pyridine-3-carboxamide] — 2-fold higher, 2 nM
- c1nc2ccc(-c3c[nH]c4nc(C5CCC5)ccc34)cn2n1 [Compound 1547, 6-(6-Cyclobutyl-1H-pyrrolo[2,3-b]pyridin-3-yl)-[1,2,4]triazolo[1,5-a] pyridine] — 120-fold higher, 121 nM
- O=C(NC1CCN(CC2CC2)CC1)c1cnn2ccc(-c3c[nH]c4ncccc34)cc12 [Compound 48, N-(1-(cyclopropylmethyl)piperidin-4-yl)-5-(1H-pyrrolo[2,3-b]pyridin-3-yl)pyrazolo[1,5-a]pyridine-3-carboxamide] — the same, 1 nM
- CN1CCC(C(=O)Nc2ccc3c(-c4ccc5ncccc5c4)c[nH]c3n2)CC1 [Compound 1866, 1-Methyl-N-(3-(quinolin-6-yl)-1H-pyrrolo[2,3-b]pyridin-6-yl) piperidine-4-carboxamide] — the same, 1 nM
- Cc1nc2c(F)cc(-c3c[nH]c4ncc(NC(=O)c5ccnc(N6CCNCC6)c5)cc34)cc2n1C(C)C [Compound 829, N-(3-(4-Fluoro-1-isopropyl-2-methyl-1H-benzo[d]imidazol-6-yl)-1H-pyrrolo[2,3-b]pyridin-5-yl)-2-(piperazin-1-yl)isonicotinamide] — 2-fold higher, 2 nM
- COc1ccc(-c2c[nH]c3ncccc23)nn1 [Compound 69, 3-(6-Methoxypyridazin-3-yl)-1H-pyrrolo[2,3-b]pyridine] — 73-fold higher, 73 nM
- Cc1nc2c(F)cc(-c3c[nH]c4ncccc34)cc2n1C1CCNCC1 [Compound 23, 4-Fluoro-2-methyl-1-(piperidin-4-yl)-6-(1H-pyrrolo[2,3-b]pyridin-3-yl)-1H-benzo[d]imidazole] — 2-fold higher, 2 nM
- Cc1nc2c(F)cc(-c3c[nH]c4ncc(CN5CCN(C)CC5)cc34)cc2n1C(C)C [Compound 409, 4-Fluoro-1-isopropyl-2-methyl-6-(5-((4-methylpiperazin-1-yl)methyl)-1H-pyrrolo[2,3-b]pyridin-3-yl)-1H-benzo[d]imidazole] — 13-fold higher, 13 nM
